Measured values reported in patent EP4793274A1, “SALT AND CRYSTAL FORM OF KIF18A INHIBITOR COMPOUND, PREPARATION METHOD THEREFOR AND USE THEREOF” (Hubei Bio-Pharmaceutical Industrial Technological Institute …, priority 2023, dated 2025).
Counter-ions that a name gives are not always drawn.

What was measured:
[1] = Solid state stability (XRPD and HPLC purity); assay type: physicochemical
From the text: 167-171. […] Table C-3. Summary of solid state stability evaluation

[2] = Solubility at room temperature in water, SGF and FaSSIF (HPLC concentration, pH of filtrate, XRPD of residual solid); details: listed as Crystal form A of maleate; for S: solubility: feeding concentration 1 mg/mL; for pH: pH of filtrate
[3] = Dynamic solubility at 37 °C in H2O, SGF, FaSSIF and FeSSIF (HPLC concentration, pH of filtrate, XRPD of residual solid); assay type: physicochemical; details: listed as Crystal form A of maleate; for S: solubility: feeding concentration 10 mg/mL; for FC: crystal form change: XRPD of residual solid; for pH: pH of filtrate
Procedure: 0.82 mL of glacial acetic acid and 1.18 g of NaCl were added to a 100 mL volumetric flask and completely dissolved by addition of purified water.
The solubility of each sample in H2O, SGF, FaSSIF, and FeSSIF was determined at different time points (1 h, 2 h, 4 h, and 24 h). […] 137-156. […] Table C-2. Summary of dynamic solubility test results at 37 °C

[4] = Hygroscopicity by dynamic vapor sorption (DVS); assay type: physicochemical; details: 25 °C/80% RH
Procedure: Dynamic vapor sorption (DVS) curves were acquired on a DVS IntrInsic from Surface Measurement Systems (SMS). The relative humidity at 25 °C was corrected with the deliquescence points of LiCl, Mg(NO3)2, and KCl. Table A-5. DVS test parameters
The percentage changes in mass of the samples when the humidity changed (0% RH to 95% RH) at a constant temperature of 25 °C were collected. 157-166.

[5] = 80 °C/sealed, 1 day, listed as Crystal form A of maleate

## Cc1cc(-c2cnn(-c3ccc(NS(=O)(=O)CCO)cc3N3CCC4(CC3)CC4)c2)nc(N2CCC(F)(F)CC2)n1 [crystal form A of the maleate]
[1]; 25 °C/60% RH/open, 1 week
  HPLC results Relative to starting (%): 100.0%
[1]; 25 °C/60% RH/open, 1 week, listed as Crystal form A of maleate
  HPLC results Purity (area%): 98.26 area%
[1]; 40 °C/75% RH/open, 1 week
  HPLC results Relative to starting (%): 100.0%
[1]; 40 °C/75% RH/open, 1 week, listed as Crystal form A of maleate
  HPLC results Purity (area%): 98.30 area%
[1]; [5]
  HPLC results Purity (area%): 98.08 area%
  HPLC results Relative to starting (%): 99.8%
[1]; Starting, listed as Crystal form A of maleate
  HPLC results Purity (area%): 98.29 area%
[1]; XRPD after 25 °C/60% RH/open, 1 week, listed as Crystal form A of maleate
  Crystal form: Crystal form A of maleate
[1]; XRPD after 40 °C/75% RH/open, 1 week, listed as Crystal form A of maleate
  Crystal form: Crystal form A of maleate
[1]; XRPD after 80 °C/sealed, 1 day, listed as Crystal form A of maleate
  Crystal form: Crystal form A of maleate
[2]; FaSSIF, 2 h, 120 min
  S: solubility: 0.1268 mg/mL
[2]; FaSSIF, 24 h, 1440 min
  S: solubility: 0.0479 mg/mL
[2]; H2O, 24 h, 1440 min
  S: solubility: 0.0003 mg/mL
[2]; SGF, 2 h, 120 min
  S: solubility: 0.0512 mg/mL
[2]; SGF, 24 h, 1440 min
  S: solubility: 0.0366 mg/mL
[2]; FaSSIF, 2 h
  pH: 6.4
[2]; FaSSIF, 24 h
  pH: 6.2
[3]; FaSSIF, 1 h, 60 min
  S: solubility: 0.0627 mg/mL
[3]; FaSSIF, 2 h, 120 min
  S: solubility: 0.0489 mg/mL
[3]; FaSSIF, 4 h, 240 min
  S: solubility: 0.0397 mg/mL
[3]; FaSSIF, 24 h, 1440 min
  S: solubility: 0.0253 mg/mL
[3]; FeSSIF, 1 h, 60 min
  S: solubility: 0.2025 mg/mL
[3]; FeSSIF, 2 h, 120 min
  S: solubility: 0.1824 mg/mL
[3]; FeSSIF, 4 h, 240 min
  S: solubility: 0.1695 mg/mL
[3]; FeSSIF, 24 h, 1440 min
  S: solubility: 0.0940 mg/mL
[3]; H2O, 1 h, 60 min
  S: solubility: 0.0139 mg/mL
[3]; H2O, 2 h, 120 min
  S: solubility: 0.0098 mg/mL
[3]; H2O, 4 h, 240 min
  S: solubility: 0.0052 mg/mL
[3]; H2O, 24 h, 1440 min
  S: solubility: 0.0009 mg/mL
[3]; SGF, 1 h, 60 min
  S: solubility: 0.0795 mg/mL
[3]; SGF, 2 h, 120 min
  S: solubility: 0.0718 mg/mL
[3]; SGF, 4 h, 240 min
  S: solubility: 0.0579 mg/mL
[3]; SGF, 24 h, 1440 min
  S: solubility: 0.0111 mg/mL
[3]; FaSSIF, 1 h
  FC: crystal form change: Yes
  pH: 2.94
[3]; FaSSIF, 2 h
  FC: crystal form change: Yes
  pH: 2.90
[3]; FaSSIF, 4 h
  FC: crystal form change: Yes
  pH: 2.90
[3]; FaSSIF, 24 h
  FC: crystal form change: Yes
  pH: 2.90
[3]; FeSSIF, 1 h
  FC: crystal form change: Yes
  pH: 4.66
[3]; FeSSIF, 2 h
  FC: crystal form change: Yes
  pH: 4.68
[3]; FeSSIF, 4 h
  FC: crystal form change: Yes
  pH: 4.67
[3]; FeSSIF, 24 h
  FC: crystal form change: Yes
  pH: 4.70
[3]; H2O, 1 h
  FC: crystal form change: Yes
  pH: 2.00
[3]; H2O, 2 h
  FC: crystal form change: Yes
  pH: 2.05
[3]; H2O, 4 h
  FC: crystal form change: Yes
  pH: 1.98
[3]; H2O, 24 h
  FC: crystal form change: Yes
  pH: 2.03
[3]; SGF, 1 h
  FC: crystal form change: Yes
  pH: 1.55
[3]; SGF, 2 h
  FC: crystal form change: Yes
  pH: 1.57
[3]; SGF, 4 h
  FC: crystal form change: Yes
  pH: 1.54
[3]; SGF, 24 h
  FC: crystal form change: Yes
  pH: 1.58
[4]
  vapor sorption values: 0.235%
